Assays:
transplanted rice = assay: Test Example 1: effect on crop, application before weed generation under submerged conditions (Table 16, symbol a); type: in vivo; conditions: 320 g/ha applied herbicide
Method in brief: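 Emulsion formulation, water-diluted to set dose, was put onto the flooded surface (4 cm depth, alluvial soil) the same day weeds were sown and 2.5-leaf rice transplanted. After 3 weeks at 25-30 °C under glass, each species was rated 0 (≤5% kill) to 5 (≥90% kill).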

rapeseed [1] = assay: Test Example 5: effect on crop by foliage application, plastic box (Table 20, symbol g); type: in vivo; conditions: 320 g/ha, evaluated three weeks after application
Method in brief: (§1)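 Sow seeds spot-wise in sterilized diluvial soil; cover with ~1.5 cm soil. Grow 14 days in greenhouse, 25° C. to 30° C. Spray foliage with emulsion diluted to predetermined amount. Rate effect after 3 weeks.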

wheat [2] = assay: Test Example 5: effect on crop by foliage application, plastic box (Table 20, symbol e); type: in vivo; conditions: 320 g/ha, evaluated three weeks after application
Method in brief: as §1

beet [3] = assay: Test Example 5: effect on crop by foliage application, plastic box (Table 20, symbol f); type: in vivo; conditions: 320 g/ha, evaluated three weeks after application
Method in brief: as §1

corn [4] = assay: Test Example 5: effect on crop by foliage application, plastic box (Table 20, symbol c); type: in vivo; conditions: 320 g/ha, evaluated three weeks after application
Method in brief: as §1

rapeseed [5] = assay: Test Example 4: effect on crop by soil treatment (Table 19, symbol g); type: in vivo; conditions: 320 g/ha
Method in brief: (§2)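 Soil-surface application: an emulsion agent diluted with water to the predetermined dose is sprayed uniformly over seeds lying under roughly 1.5 cm of sterilized diluvial soil. Boxes stay in a greenhouse at 25° C. to 30° C. Three weeks later, each species is graded on previously defined criteria.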

wheat [6] = assay: Test Example 4: effect on crop by soil treatment (Table 19, symbol e); type: in vivo; conditions: 320 g/ha
Method in brief: as §2

beet [7] = assay: Test Example 4: effect on crop by soil treatment (Table 19, symbol f); type: in vivo; conditions: 320 g/ha
Method in brief: as §2

soybean [8] = assay: Test Example 5: effect on crop by foliage application, plastic box (Table 20, symbol d); type: in vivo; conditions: 320 g/ha, evaluated three weeks after application
Method in brief: as §1

soybean [9] = assay: Test Example 4: effect on crop by soil treatment (Table 19, symbol d); type: in vivo; conditions: 320 g/ha
Method in brief: as §2

corn [10] = assay: Test Example 4: effect on crop by soil treatment (Table 19, symbol c); type: in vivo; conditions: 320 g/ha
Method in brief: as §2

false cleavers [11] = assay: Test Example 4: herbicidal effect by soil treatment (Table 19, symbol Q); type: in vivo, false cleavers (Galium spurium); conditions: 320 g/ha
Method in brief: as §2

directly sowed rice = assay: Test Example 3: effect on crop by foliage application, Wagner pot (Table 18, symbol b); type: in vivo; conditions: 320 g/ha
Method in brief: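 Plants were sown in alluvial soil held under 0.1–0.5 cm standing water and grown 14 days in a greenhouse at 25–30 °C. An emulsifiable formulation, water-diluted to the set dose, was then sprayed onto the foliage, and effects were scored three weeks later using previously defined criteria.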

false cleavers [12] = assay: Test Example 5: herbicidal effect by foliage application, plastic box (Table 20, symbol Q); type: in vivo, false cleavers (Galium spurium); conditions: foliage application, 320 g/ha, evaluated three weeks after application
Method in brief: as §1

melting point: 221 to 223 °C
Structure (SMILES): COc1cc(F)ccc1-c1sc2ccc(Cl)cc2c1-c1c(O)c(C)nn(C)c1=O [Compound No. 2-095, 4-(5-chloro-2-(4-fluoro-2-methoxyphenyl)benzo[b]thiophen-3-yl)-5-hydroxy-2,6-dimethylpyridazin-3(2H)-one]
Effect on crop a: transplanted rice (grade 0-5) (transplanted rice): 0 (Herbicidal rate of 5% or less (almost no effect))
effect on crop, g: rapeseed (rapeseed [1]): 5 (Herbicidal rate of 90% or more (almost completely withered))
effect on crop, e: wheat (wheat [2]): 1 (Herbicidal rate of 5% or more and less than 20%)
effect on crop, f: beet (beet [3]): 5 (Herbicidal rate of 90% or more (almost completely withered))
effect on crop, c: corn (corn [4]): 1 (Herbicidal rate of 5% or more and less than 20%)
effect rating on crop, g: rapeseed (rapeseed [5]): 1 (Herbicidal rate of 5% or more and less than 20%)
effect rating on crop, e: wheat (wheat [6]): 0 (Herbicidal rate of 5% or less (almost no effect))
effect rating on crop, f: beet (beet [7]): 4 (Herbicidal rate of 70% or more and less than 90%)
effect on crop, d: soybean (soybean [8]): 4 (Herbicidal rate of 70% or more and less than 90%)
effect rating on crop, d: soybean (soybean [9]): 0 (Herbicidal rate of 5% or less (almost no effect))
effect rating on crop, c: corn (corn [10]): 0 (Herbicidal rate of 5% or less (almost no effect))
herbicidal effect rating, Q: false cleavers (false cleavers [11]): 4 (Herbicidal rate of 70% or more and less than 90%)
effect on crop b (directly sowed rice), rating 0-5 (directly sowed rice): 1 (Herbicidal rate of 5% or more and less than 20%)
herbicidal effect on Q: false cleavers (false cleavers [12]): 5 (Herbicidal rate of 90% or more (almost completely withered))
